The results in this text go back to US7563788B2, “Substituted Imidazo[1,2-a]pyridines as Antibacterial Agents” (Pfizer Inc., priority 2004, dated 2009).

Data set [1] has as its system Neisseria gonorrhoeae, GC525 (NG-2888). Nature of the data set: In-vitro antibacterial activity, microbroth dilution MIC susceptibility testing. The following applies: gonococcal broth, 20-24 hours at 35° C., lowest concentration preventing visible growth. In kind it is cell-based. On the procedure:
The in-vitro antibacterial activity of selected compounds was determined against a stain of Neisseria gonorrhoeae, GC525 (NG-2888), which is described by Rouquette-Loughlin et al, in Journal of Bacteriology, February 2003, p. 1101-1106, at p. 1103. In general, minimum inhibitory concentration (MIC) susceptibility testing followed procedures recommended by the National Committee for Clinical Laboratory Standards (NCCLS^1-2) or followed the descriptions described below:
Neisseria gonorrhoeae strains were grown on Chocolate Agar II plates (BBL—Becton Dickinson Microbiology Systems, Cockeysville, Md.) and incubated at 35° C. in a humidified 5% CO2 incubator (Forma Scientific, Marietta Ohio). For microbroth dilution MIC testing, N. gonorrhoeae were tested in gonococcal broth (GCB):
Bacterial culture identifications were confirmed by standard microbiological methods.^4 N. gonorrhoeae strains were streaked onto appropriate agar plates for visualization of purity and expected colony morphology. Gram stains were also utilized.
Bacterial stock cultures are stored as frozen suspensions at −70° C. N. gonorrhoeae cultures are suspended in inactivated Horse Serum (Colorado Serum Company, Denver, Colo.) containing 7.5% glucose prior to snap freezing in a dry ice/ethanol bath.
Frozen stock cultures were used as the initial source of organisms for performing microbroth dilution MIC testing. Stock cultures were passed on their respective growth medium at least one growth cycle (18-24 hours) prior to their use. Bacterial culture suspensions were prepared directly from Chocolate Agar II plates into 10 mL cation-adjusted Mueller-Hinton Broth (CAMHB, BBL, # BB215069). Before use, cultures were adjusted to an optical density value of […] on a Perkin-Elmer Lambda EZ150 Spectrophotometer (Wellesley, Mass.) set at a wavelength of 600 nm. Random cultures were plated for validation of actual colony counts. The adjusted cultures were diluted 400-fold (0.25 mL inoculum+100 mL GCB) into gonococcal broth producing a starting inoculum of approximately 5×10^5 cfu/mL. These cultures were inoculated into test plates (100 uL/well) using a Biomek® FX workstation (Beckman Coulter Inc., Fullerton, Calif.). The inoculated plates were placed in stacks of no more than 4 and covered with an empty plate. Plates were incubated for 20-24 hours at 35° C. in a humidified CO2 incubator.
Drug stock solutions (2 mg/mL in DMSO) were prepared on the day of testing. Drugs were weight corrected for assay content where necessary.
Microbroth dilution stock plates were prepared in two dilution series, 64-0.06 ug drug/mL and 1-0.001 ug drug/mL. For the high concentration series, 200 uL of stock solution (2 mg/mL) was added to duplicate rows of a 96-well plate. This was used as the first well in the dilution series. Serial two-fold decremental dilutions were made using a BioMek FX robot (Beckman Coulter Inc., Fullerton, Calif.) with 10 of the remaining 11 wells, each of which contained 100 uL of the appropriate solvent/diluent. Row 12 contained solvent/diluent only and served as the control. For tube one of the low concentration series, 200 uL of a 31.25 ug/mL stock was added to duplicate rows of a 96-well plate. Serial two-fold dilutions were made as described above.
Daughter plates were spotted (3.2 uL/well) from the stock plates listed above using the BioMek FX robot and were inoculated with organism (100 uL/well) as described previously.
After incubation, the degree of growth in each well was read visually with the aid of a Test Reading Mirror (Dynatech Lab 220-16, Dynex Technologies, Chantilly, Va.). 96-well test plates are read in a darkened room with a single light shining from above. The MIC is the lowest concentration of drug that prevents macroscopically visible growth under the conditions of the test. Each drug dilution series was tested in duplicate; identical results are not always obtained. If MIC values in duplicate tests differ by 1 well (two-fold), the […] value is reported. […]
In general terms: Broth dilution looks for growth in wells or tubes with falling amounts of substance.

In brackets after ≈: the same amount, converted by molar mass.

A word on the melting point: it is the temperature of the solid-liquid transition. The MIC is the smallest concentration in the dilution series that meets the test's criterion for growth inhibition. High values mean a less susceptible organism, low ones a more susceptible organism. For the compound `CCNC(=O)Nc1cn2ccc(-c3ccn[nH]3)cc2n1` [Example 38, 1-Ethyl-3-[7-(2H-pyrazol-3-yl)-imidazo[1,2-a]pyridin-2-yl]-urea], the melting point is 292 to 295 °C (dec.). It took 32 µg/mL (≈ 118 µM) to inhibit growth in data set [1] (MIC). The matching figures for `CCNC(=O)Nc1cn2ccc(-c3ccc(OC)nc3)cc2n1` [Example 3B, 1-Ethyl-3-[7-(6-methoxy-pyridin-3-yl)-imidazo[1,2-a]pyridin-2-yl]-urea]: 222 to 225 °C (dec.) and 16 µg/mL (≈ 51.4 µM). For `CCOC(=O)Nc1cn2ccc(-c3cnc(N(C)C)nc3)cc2n1` [Example 2A, [7-(2-Dimethylamino-pyrimidin-5-yl)-imidazo[1,2-a]pyridin-2-yl]-carbamic Acid Ethyl Ester], the melting point is 270 to 280 °C (dec.). This compound showed an MIC in data set [1] of more than 64 µg/mL.

For `CCNC(=O)Nc1cn2ccc(-c3cnc(OC)nc3)cc2n1` [Example 4, 1-Ethyl-3-[7-(2-methoxy-pyrimidin-5-yl)-imidazo[1,2-a]pyridin-2-yl]-urea], the melting point was more than 300 °C. The same compound had a minimum inhibitory concentration (MIC) in data set [1] of 12.7 µg/mL (≈ 40.7 µM). The compound `CC(C)NC(=O)Nc1cn2ccc(-c3cncnc3)cc2n1` [Example 30, 1-Isopropyl-3-(7-pyrimidin-5-yl-imidazo[1,2-a]pyridin-2-yl)-urea] returned an MIC in data set [1] of 32 µg/mL (≈ 108 µM). On the same count and under the same terms, then `CCNC(=O)Nc1cn2ccc(-c3c(C)noc3C)cc2n1` [Example 9, 1-[7-(3,5-Dimethyl-isoxazol-4-yl)-imidazo[1,2-a]pyridin-2-yl]-3-ethyl-urea], with more than 64 µg/mL; and `CCNC(=O)Nc1cn2ccc(-c3noc(C(C)C)n3)cc2n1` [Example 40, 1-Ethyl-3-[7-(5-isopropyl-[1,2,4]oxadiazol-3-yl)-imidazo[1,2-a]pyridin-2-yl]-urea], with more than 64 µg/mL. Same read-out and setting: in the case of `CCNC(=O)Nc1cn2c(-c3nc(C)no3)cc(-c3cccnc3)cc2n1` [Example 45, 1-Ethyl-3-[5-(3-methyl-[1,2,4]oxadiazol-5-yl)-7-pyridin-3-yl-imidazo[1,2-a]pyridin-2-yl]-urea] it was 0.25 µg/mL (≈ 0.688 µM). Same read-out and setting: then `CCNC(=O)Nc1cn2ccc(-c3cnn(Cc4ccccc4)c3)cc2n1` [Example 10, 1-[7-(1-Benzyl-1H-pyrazol-4-yl)-imidazo[1,2-a]pyridin-2-yl]-3-ethyl-urea], with 8 µg/mL (≈ 22.2 µM); and `CCNC(=O)Nc1cn2ccc(-c3cnc(OC)nc3OC)cc2n1` [Example 13, 1-[7-(2,4-Dimethoxy-pyrimidin-5-yl)-imidazo[1,2-a]pyridin-2-yl]-3-ethyl-urea], with more than 64 µg/mL. In the case of `CCNC(=O)Nc1cn2c(-c3cnn(C)c3)cc(-c3cccnc3)cc2n1` [Example 23, 1-Ethyl-3-[5-(1-methyl-1H-pyrazol-4-yl)-7-pyridin-3-yl-imidazo[1,2-a]pyridin-2-yl]-urea], in data set [1], the lowest concentration to inhibit growth (MIC) was 0.13 µg/mL (≈ 0.36 µM). The same measure, in the same setting: then `CCNC(=O)Nc1cn2ccc(-c3cn[nH]c3)cc2n1` [Example 15, 1-Ethyl-3-[7-(1H-pyrazol-4-yl)-imidazo[1,2-a]pyridin-2-yl]-urea], with 64 µg/mL (≈ 237 µM); and `CCNC(=O)Nc1cn2ccc(-c3ccc(F)nc3)cc2n1` [Example 46, 1-Ethyl-3-[7-(6-fluoro-pyridin-3-yl)-imidazo[1,2-a]pyridin-2-yl]-urea], with 16 µg/mL (≈ 53.5 µM); and `CCNC(=O)Nc1cn2ccc(-c3ccc(OCCN4CCOCC4)nc3)cc2n1` [Example 6, 1-Ethyl-3-{7-[6-(2-morpholin-4-yl-ethoxy)-pyridin-3-yl]-imidazo[1,2-a]pyridin-2-yl}-urea], with 45.3 µg/mL (≈ 110 µM). The same measure, in the same setting: then `CCNC(=O)Nc1cn2ccc(-c3cncnc3)cc2n1` [Example 8, 1-Ethyl-3-(7-pyrimidin-5-yl-imidazo[1,2-a]pyridin-2-yl)-urea], with 5.66 µg/mL (≈ 20 µM).

For the compound `CCNC(=O)Nc1cn2ccc(C(=O)O)cc2n1` [Example 24, 2-(3-Ethyl-ureido)-imidazo[1,2-a]pyridine-7-carboxylic Acid], the MIC in data set [1] was more than 64 µg/mL. On the same count and under the same terms, then `CCOC(=O)Nc1cn2cnc(-c3cccnc3)cc2n1` [Example 5, (7-Pyridin-3-yl-imidazo[1,2-c]pyrimidin-2-yl)-carbamic Acid Ethyl Ester], with more than 64 µg/mL; and `CCNC(=O)Nc1nc2cc(-c3cccnc3)ccn2c1Cl` [Example 16, 1-(3-Chloro-7-pyridin-3-yl-imidazo[1,2-a]pyridin-2-yl)-3-ethyl-urea], with 64 µg/mL (≈ 203 µM); and `CCNC(=O)Nc1cn2ccc(-c3noc(C)n3)cc2n1` [Example 22, 1-Ethyl-3-[7-(5-methyl-[1,2,4]oxadiazol-3-yl)-imidazo[1,2-a]pyridin-2-yl]-urea], with more than 64 µg/mL. Same read-out and setting: then `CCNC(=O)Nc1cn2ccc(-c3ccc(N)nc3)cc2n1` [Example 34, 1-[7-(6-Amino-pyridin-3-yl)-imidazo[1,2-a]pyridin-2-yl]-3-ethyl-urea], with 16 µg/mL (≈ 54 µM). On the same count and under the same terms, then `CCNC(=O)Nc1cn2c(C(=O)OC)cc(-c3cccnc3)cc2n1` [Example 7B, 2-(3-Ethyl-ureido)-7-pyridin-3-yl-imidazo[1,2-a]pyridine-5-carboxylic Acid Methyl Ester], with 0.5 µg/mL (≈ 1.47 µM); and `CCNC(=O)Nc1cn2ccc(-c3cccnc3)cc2n1` [Example 1B, 1-Ethyl-3-(7-pyridin-3-yl-imidazo[1,2-a]pyridin-2-yl)-urea], with 16 µg/mL (≈ 56.9 µM); and `CCNC(=O)Nc1cn2ccc(-c3csnn3)cc2n1` [Example 39, 1-Ethyl-3-(7-[1,2,3]thiadiazol-4-yl-imidazo[1,2-a]pyridin-2-yl)-urea], with 16 µg/mL (≈ 55.5 µM). `O=C(NCC(F)(F)F)Nc1cn2ccc(-c3cncnc3)cc2n1` [Example 31, 1-(7-Pyrimidin-5-yl-imidazo[1,2-a]pyridin-2-yl)-3-(2,2,2-trifluoro-ethyl)-urea] gave an MIC in data set [1] of 64 µg/mL (≈ 190 µM). On the same count and under the same terms, in the case of `CCNC(=O)Nc1cn2ccc(C(C)=O)cc2n1` [Example 35, N-(7-acetylimidazo[1,2-a]pyridin-2-yl)-N′-ethylurea] it was 64 µg/mL (≈ 260 µM).

`CCNC(=O)Nc1cn2ccc(-c3ccnc(N)c3)cc2n1` [Example 42, 1-[7-(2-Amino-pyridin-4-yl)-imidazo[1,2-a]pyridin-2-yl]-3-ethyl-urea] registered an MIC in data set [1] of 64 µg/mL (≈ 216 µM). The compound `CCNC(=O)Nc1cn2ccc(-c3cnn(C)c3)cc2n1` [Example 12, 1-Ethyl-3-[7-(1-methyl-1H-pyrazol-4-yl)-imidazo[1,2-a]pyridin-2-yl]-urea] returned an MIC in data set [1] of 64 µg/mL (≈ 225 µM). Same read-out and setting: then `O=C(NCC1CC1)Nc1cn2ccc(-c3cncnc3)cc2n1` [Example 28, 1-Cyclopropylmethyl-3-(7-pyrimidin-5-yl-imidazo[1,2-a]pyridin-2-yl)-urea], with 32 µg/mL (≈ 104 µM); and `CCOC(=O)Nc1cn2ccc(-c3cccnc3)cc2n1` [Example 1A, (7-Pyridin-3-yl-imidazo[1,2-a]pyridin-2-yl)-carbamic Acid Ethyl Ester], with more than 64 µg/mL. On the same count and under the same terms, in the case of `CCNC(=O)Nc1cn2ccc(C(N)=O)cc2n1` [Example 19, 2-(3-Ethyl-ureido)-imidazo[1,2-a]pyridine-7-carboxylic Acid Amide] it was more than 64 µg/mL; in that of `CCNC(=O)Nc1nc2cc(-c3cnc(N(C)C)nc3)ccn2c1Cl` [Example 17, 1-[3-Chloro-7-(2-dimethylamino-pyrimidin-5-yl)-imidazo[1,2-a]pyridin-2-yl]-3-ethyl-urea], more than 32 µg/mL.
